The values that follow come from article PMC9118996, “Directed evolution of Zymomonas mobilis sugar facilitator Glf to overcome glucose inhibition” (Journal of Industrial Microbiology & Biotechnology, 2021).

This assay concerns the target T1, Glf (Zymomonas mobilis sugar / glucose facilitator) (Zymomonas mobilis, UniProt P21906).
T1 construct: full-length glf coding region with 20 bp native flanks in pTrc99A (pGlfwt), no tag told; expressed in E. coli W derivatives EG29 and EG51A lacking glucose and xylose uptake
T1 sequence (P21906 1-473): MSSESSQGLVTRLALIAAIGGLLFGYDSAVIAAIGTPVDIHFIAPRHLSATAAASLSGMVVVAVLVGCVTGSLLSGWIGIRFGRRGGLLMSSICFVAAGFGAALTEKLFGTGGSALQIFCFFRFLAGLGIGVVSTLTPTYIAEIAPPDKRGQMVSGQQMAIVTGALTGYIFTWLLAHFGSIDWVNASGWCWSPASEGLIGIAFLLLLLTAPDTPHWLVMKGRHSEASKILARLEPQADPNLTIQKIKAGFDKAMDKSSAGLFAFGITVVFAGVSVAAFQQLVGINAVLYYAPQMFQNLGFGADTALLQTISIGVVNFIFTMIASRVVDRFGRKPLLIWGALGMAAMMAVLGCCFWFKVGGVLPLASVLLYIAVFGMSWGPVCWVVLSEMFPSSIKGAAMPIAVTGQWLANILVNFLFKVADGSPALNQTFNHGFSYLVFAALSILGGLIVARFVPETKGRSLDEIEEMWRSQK
Briefly: xylose utilization in fermentation of transport-deficient E. coli with Glf vs empty vector (HPLC). Type of assay: cell-based, Escherichia coli. The settings on record: E. coli EG51A (EG29 glk-), 34 g/l xylose alone, pH 7.0, 37 °C, 10 µM IPTG; facilitated uptake; whole-cell read-out.

As to `OC1OC[C@@H](O)[C@H](O)[C@H]1O` (stereo partly drawn) [D-xylose], the “xylose utilization in fermentation of transport-deficient E. coli with Glf vs em” value is “EG51A transformed with pGlfwt showed much improved xylose utilization compared to EG51A with empty vector”.
